Measured values from ChEMBL document CHEMBL1129862, “2,3-Substituted 2-azanorbornanes as polar -turn mimetics” (Bioorg Med Chem Lett, 1997).
Where a SMILES comes first, the peptide text is derived from it. Bridges are numbered along the chain shown (N, C = ends). [ ]: non-standard residue; d: D form. Dap = NC[C@H](N)C(=O)O

What was measured:
[1] = molecular target: T1, Substance-K receptor (Mesocricetus auratus) (UniProt P51144); assay: Inhibition by the compound against [125I]NKA binding to neurokinin-2 (NK-2) receptor in hamster urinary bladder at 10 uM concentration
T1 sequence (whole entry): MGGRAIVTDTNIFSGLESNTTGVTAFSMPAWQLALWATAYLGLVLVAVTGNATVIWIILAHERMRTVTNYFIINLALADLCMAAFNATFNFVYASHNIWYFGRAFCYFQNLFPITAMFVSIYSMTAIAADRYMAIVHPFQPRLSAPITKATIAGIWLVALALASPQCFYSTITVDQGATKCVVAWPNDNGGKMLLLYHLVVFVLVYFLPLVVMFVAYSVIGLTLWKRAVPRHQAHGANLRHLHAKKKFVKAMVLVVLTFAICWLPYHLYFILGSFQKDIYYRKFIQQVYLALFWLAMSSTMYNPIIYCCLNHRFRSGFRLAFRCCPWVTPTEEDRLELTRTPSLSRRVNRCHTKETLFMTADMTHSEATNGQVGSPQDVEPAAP

Substance-P receptor [2] = molecular target: T2, Substance-P receptor (Homo sapiens, UniProt P25103); assay: Inhibition by the compound against [125I]BH-SP radioligand binding to neurokinin-1 (NK-1) receptor in human IM-9 cells at 10 uM concentration; assay type: cell-based
Neuromedin-K receptor [3] = molecular target: T3, Neuromedin-K receptor (Homo sapiens, UniProt P29371); assay: Tested for binding affinity of compound against [125I][MePhe]-NKB binding to Tachykinin receptor 3 in stably expressed CHO cells; assay type: cell-based
T3 sequence (P29371 whole entry): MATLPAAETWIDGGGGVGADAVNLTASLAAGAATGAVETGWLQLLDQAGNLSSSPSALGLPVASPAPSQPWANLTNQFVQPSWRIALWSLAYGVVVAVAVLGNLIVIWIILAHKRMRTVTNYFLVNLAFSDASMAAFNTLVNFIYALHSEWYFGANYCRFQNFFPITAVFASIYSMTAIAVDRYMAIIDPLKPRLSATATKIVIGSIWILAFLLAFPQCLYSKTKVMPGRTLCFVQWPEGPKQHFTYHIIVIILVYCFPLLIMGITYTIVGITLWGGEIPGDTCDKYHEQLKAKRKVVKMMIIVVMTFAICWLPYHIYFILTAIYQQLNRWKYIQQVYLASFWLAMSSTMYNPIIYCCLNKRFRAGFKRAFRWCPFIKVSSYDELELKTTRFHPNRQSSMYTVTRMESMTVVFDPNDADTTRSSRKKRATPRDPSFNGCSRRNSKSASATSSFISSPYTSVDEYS

Substance-P receptor [4] = molecular target: T2, Substance-P receptor; assay: Tested for binding affinity against [125I]BH-SP binding to neurokinin-1 (NK-1) receptor in human IM-9 cells; assay type: cell-based
[5] = molecular target: T4, Neuromedin-K receptor (Homo sapiens) (UniProt P29371); assay: Inhibition by the compound against [125I]-[MePhe]-NKB binding to human Tachykinin receptor 3 in stably expressed CHO cells at 10 uM concentration; assay type: cell-based
T4 sequence (whole entry): T3 sequence (P29371 whole entry)

Neuromedin-K receptor [6] = molecular target: T3, Neuromedin-K receptor; assay: Tested for binding affinity of compound against [125I][MePhe]-NKB binding to human Tachykinin receptor 3 in stably expressed CHO cells; Inactive; assay type: cell-based
Substance-K receptor = molecular target: T5, Substance-K receptor (Mesocricetus auratus, UniProt P51144); assay: Tested for binding affinity of compound against [125I]NKA binding to neurokinin-2 (NK-2) receptor in hamster urinary bladder
T5 sequence (P51144 whole entry): T1 sequence (whole entry)

T2 sequence (P25103 whole entry): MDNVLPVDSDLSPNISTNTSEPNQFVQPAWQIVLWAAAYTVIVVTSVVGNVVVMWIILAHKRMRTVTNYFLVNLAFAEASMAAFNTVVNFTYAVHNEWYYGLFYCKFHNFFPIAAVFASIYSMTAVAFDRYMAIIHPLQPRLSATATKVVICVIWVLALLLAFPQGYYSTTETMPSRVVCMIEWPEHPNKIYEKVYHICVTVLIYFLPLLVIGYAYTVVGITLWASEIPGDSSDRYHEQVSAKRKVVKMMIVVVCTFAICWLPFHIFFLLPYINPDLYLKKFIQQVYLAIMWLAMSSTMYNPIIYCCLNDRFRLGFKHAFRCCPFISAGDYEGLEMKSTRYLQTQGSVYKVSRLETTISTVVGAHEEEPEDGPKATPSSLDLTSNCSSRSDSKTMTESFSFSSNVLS

inhibition [1] | inhibition (Substance-P receptor [2]) | IC50 (Neuromedin-K receptor [3]) | IC50 (Substance-P receptor [4]) | inhibition [5] | IC50 (Neuromedin-K receptor [6]) | IC50 (Substance-K receptor) | Structure (SMILES)
18% | 55% | 10 µM | – | – | – | – | O=C(NCc1cn(C(=O)OCc2ccccc2)c2ccccc12)N1C2CCC(C2)C1Cc1ccccc1 (stereo unspecified)
31% | – | – | 6.7 µM | 35% | – | – | O=C(NCc1c[nH]c2ccccc12)N1C2CCC(C2)C1Cc1ccccc1 (stereo unspecified)
– | – | – | 0.8 µM | – | Not Active | 0.079 nM | CSCC[C@@H]1NC(=O)[C@H](CC(C)C)NC(=O)[C@@H]2CNC(=O)C[C@H](NC1=O)C(=O)N[C@@H](Cc1c[nH]c3ccccc13)C(=O)N[C@@H](Cc1ccccc1)C(=O)N2 (cyclo(DWF[Dap]LM); lactam 1-4)
14% | – | – | 3.7 µM | – | – | – | O=C(Cc1c[nH]c2ccccc12)N1CCC(Cc2ccccc2)C1 (stereo unspecified)
